Data taken from patent US6340704B1, “Cell differentiation inducing amide derivatives, their production and use” (Takeda Chemical Industries, Ltd., priority 1997, dated 2002).
Where a name gives a salt, the structure may show the parent alone. Marks after values point to notes of the source that are not given here.

Experiments:
[1] = tested on: Mouse-derived MC3T3-E1 osteoblast cells; assay: Induction of alkaline phosphatase (ALP) production in mouse osteoblastic cells, with or without 3 ng/ml BMP-4/7 heterodimer; format: cell-based; details: 72 hours; for ALP Activity (1000 × A405 ± SD) BMP Addition: medium with 3 ng/ml BMP-4/7 heterodimer; for ALP Activity (1000 × A405 ± SD) BMP Non-Addition: no BMP
Method: Induction of Alkaline Phosphatase (ALP) Production in Mouse Osteoblastic Cells
Mouse-derived MC3T3-E1 osteoblast cells were seeded in a 96-well microtiter plate of α-minimum essential medium containing FCS (fetal calf serum) (8000 cells/well). After two days when the growth had become confluent, the test substance diluted to various concentrations in Table 1 with the medium either containing or not containing 3 ng/ml of BMP-4/7 heterodimer (described in Japanese Patent Application No. 111255/1994) was added, and the microtiter plate was further incubated for 72 hours. The plate was washed once with a physiological saline solution, followed by addition of a substrate solution. The resulting mixture was incubated at room temperature for 15 minutes, followed by addition of 0.05N NaOH to terminate the reaction. The absorbance at 405 nm was measured.

Row | melting point | SMILES | ALP Activity (1000 × A405 ± SD) BMP Addition ([1]; compound 0.01 μM) | ALP Activity (1000 × A405 ± SD) BMP Non-Addition ([1]; compound 0.01 μM) | ALP Activity (1000 × A405 ± SD) BMP Addition ([1]; compound 0.1 μM) | ALP Activity (1000 × A405 ± SD) BMP Non-Addition ([1]; compound 0.1 μM) | ALP Activity (1000 × A405 ± SD) BMP Addition ([1]; compound 1 μM) | ALP Activity (1000 × A405 ± SD) BMP Non-Addition ([1]; compound 1 μM)
1 | 222 to 224 °C | CNC(=O)c1cc2cc3c(cc2c(-c2ccc4c(c2)OCO4)c1CO)OCO3 [Example 7, N-Methyl-(1,3-benzodioxole-5-yl)-7-hydroxymethyl-naphto[2,3-d]-1,3-dioxole-6-carboxamide] |  |  |  |  |  | 
2 | 233 to 235 °C | CNC(=O)c1cc(-c2ccc(F)cc2)c2c3c(ccc2n1)OCO3 [Example 46, 9-(4-Fluorophenyl)-N-methyl-1,3-dioxolo[4,5-F]quinoline-7-carboxamide] |  |  |  |  |  | 
3 | 195 to 197 °C | CNC(=O)c1cc2ccc3c(c2c(-c2ccc(OC(F)(F)F)cc2)c1CO)OCO3 [Example 24, N-Methyl-9-(4-trifluoromethoxyphenyl)-8-hydroxymethylnaphtho[1,2-d]-1,3-dioxol-7-carboxamide] |  |  |  |  |  | 
4 | 206 to 208 °C | CNC(=O)c1cc(-c2ccc3c(c2)OCO3)c2c3c(ccc2c1)OCO3 [Example 15, N-Methyl-9-(1,3-benzodioxole-5-yl)-naphtho;[1,2,-d]-1,3-dioxole-7-carboxamide] |  |  |  |  |  | 
5 | 233 to 235 °C | CNC(=O)c1cc2ccc3c(c2c(-c2ccc4c(c2)OCO4)c1CO)OCO3 [Example 1, N-Methyl-9-(1,3-benzodioxole-5-yl)-8-hydroxymethylnaphtho[1,2-d]-1,3-dioxole-7-carboxamide] | 193 ± 15 1000 × A405 | 50 ± 5 1000 × A405 | 213 ± 5* 1000 × A405 | 58 ± 5* 1000 × A405 | 386 ± 30* 1000 × A405 | 102 ± 5* 1000 × A405
6 | 210 to 213 °C | CNC(=O)c1cc2ccc3c(c2c(-c2ccc(F)cc2)c1CO)OCO3 [Example 5, N-Methyl-9-(4-fluorophenyl)-8-hydroxymethyl-naphtho[1,2-d]-1,3-dioxole-7-carboxamide] | 170 ± 20 1000 × A405 | 49 ± 1 1000 × A405 | 237 ± 14* 1000 × A405 | 62 ± 3* 1000 × A405 | 431 ± 26* 1000 × A405 | 157 ± 11* 1000 × A405
7 | 202 to 204 °C | CNC(=O)c1cc2ccc3c(c2c(-c2ccc(Cl)cc2)c1CO)OCO3 [Example 3, N-Methyl-9-(4-chlorophenyl)-8-hydroxymethyl-naphtho[1,2-d]-1,3-dioxole-7-carboxamide] |  |  |  |  |  | 
8 | 267 to 269 °C | NC(=O)c1cc(-c2ccc3c(c2)OCO3)c2c3c(ccc2c1)OCO3 [Example 14, 9-(1,3-Benzodioxole-5-yl)-naphtho[1,2-d]-1,3-dioxole-7-carboxamide] |  |  |  |  |  | 
9 | 233 to 240 °C | CN(C)CCCNC(=O)c1cc(-c2ccc3c(c2)OCO3)c2c3c(ccc2c1)OCO3 (as salt: hydrochloride) [Example 19, N-(3-Dimethylaminopropyl)-9-(1,3-benzodioxole-5-yl)-naphtho [1,2-d]-1,3-dioxole-7-carboxamide hydrochloride] |  |  |  |  |  | 
10 | 210 to 212 °C | CNC(=O)c1cc2ccc3c(c2c(-c2ccc(C)cc2)c1CO)OCO3 [Example 6, N-Methyl-9-(4-methylphenyl)-8-hydroxymethyl-naphtho[1,2-d]-1,3-dioxole-7-carboxamide] | 177 ± 14 1000 × A405 | 51 ± 2 1000 × A405 | 248 ± 6* 1000 × A405 | 74 ± 1* 1000 × A405 | 459 ± 35* 1000 × A405 | 168 ± 1* 1000 × A405
11 | 140 to 141 °C | CNC(=O)c1nc2ccc(C)cc2c(-c2ccc(F)cc2F)c1CO [Example 10, N-Methyl-[3-hydroxymethyl-6-methyl-4-(2,4-difluorophenyl)quinoline]-2-carboxamide] |  |  |  |  |  | 
12 | 207 to 210 °C | CNC(=O)c1cc2ccc3c(c2c(-c2ccc4ccccc4c2)c1CO)OCO3 [Example 4, N-Methyl-9-(2-naphthyl)-8-hydroxymethyl-naphtho[1,2-d]-1,3-dioxole-7-carboxamide] | 301 ± 8 1000 × A405 | 86 ± 3 1000 × A405 | 389 ± 25* 1000 × A405 | 108 ± 7* 1000 × A405 | 554 ± 49* 1000 × A405 | 168 ± 4* 1000 × A405
13 | 141 to 146 °C | CNC(=O)c1nc2ccc3c(c2c(-c2ccc4c(c2)OCO4)c1C)OCO3 [Example 23, N-methyl-9-(1,3-benzodioxole-5yl)-8-methyl-1,3-dioxolo [4,5-f]quinoline-7-carboxamide] |  |  |  |  |  | 
14 | 188 to 190 °C | NC(=O)c1cc(-c2ccc(OC(F)(F)F)cc2)c2c3c(ccc2c1)OCO3 [Example 25, 9-(4-Trifluoromethoxyphenyl)naphtho[1,2-d]-1,3-dioxol-7-carboxamide] |  |  |  |  |  | 
15 | 136 to 137 °C | CNC(=O)c1nc2ccc(C)cc2c(-c2ccccc2)c1CO [Example 9, N-methyl-(3-hydroxmethyl-6-methyl-4-phenylquinoline)-2-carboxamide] |  |  |  |  |  | 
16 |  | NC(=O)c1nc2ccc3c(c2c(-c2ccc4c(c2)OCO4)c1CO)OCO3 [Example 8, 9(1,3-Benzodioxole-5-yl)-8hydroxymethyl-1,3-dioxolo[4,5-f]quinoline-7-carboxamide] | 426 ± 28 1000 × A405 | 105 ± 22 1000 × A405 | 477 ± 15* 1000 × A405 | 134 ± 12 1000 × A405 | 570 ± 63* 1000 × A405 | 186 ± 26 1000 × A405
17 | 147 to 148 °C | O=C(c1cc(-c2ccc(F)cc2)c2c3c(ccc2n1)OCO3)N1CCN(Cc2ccccc2)CC1 [Example 48, N-Benzyl-N-[9-(4-fluorophenyl)-1,3-dioxolo[4,5-f]quinoline-7-carbonyl]piperazine] |  |  |  |  |  | 
18 | 160 to 161 °C | CN(C)C(=O)c1cc(-c2ccc3c(c2)OCO3)c2c3c(ccc2c1)OCO3 [Example 16, N,N-Dimethyl-9-(1,3,-benzodioxole-5-yl)-naphtho[1,2-d]-1,3,-dioxole-7-carboxamide] |  |  |  |  |  | 
19 | 187 to 189 °C | COc1ccc(-c2cc(C(N)=O)cc3ccc4c(c23)OCO4)cc1 [Example 11, 9(4-Methoxyphenyl)-naphtho[1,2,-d]-1,3,-dioxole-7-carboxamide] |  |  |  |  |  | 
20 |  | Cc1c(C(N)=O)nc2ccc3c(c2c1-c1ccc2c(c1)OCO2)OCO3 [Example 22, 9-(1,3-Benzodioxole-5-yl)-8-methyl-1,3-dioxole[4,4-f]quinoline-7-carboxamide] | 187 ± 3 1000 × A405 | 135 ± 8* 1000 × A405 | 226 ± 6* 1000 × A405 | 149 ± 11* 1000 × A405 | 326 ± 18* 1000 × A405 | 190 ± 10* 1000 × A405
21 | 187 to 190 °C | CNC(=O)c1cc2ccc3c(c2c(-c2ccc(OC)cc2)c1CO)OCO3 [Example 2, N-Methyl-9-(4-methoxyphenyl)-8-hydroxymethyl-naphtho[1,2-d]-1,3-dioxole-7-carboxamide] | 323 ± 13 1000 × A405 | 80 ± 2 1000 × A405 | 354 ± 15* 1000 × A405 | 95 ± 7* 1000 × A405 | 478 ± 17* 1000 × A405 | 162 ± 18* 1000 × A405
22 | 237 to 239 °C | Cc1c(C(N)=O)cc(-c2ccc3c(c2)OCO3)c2c3c(ccc12)OCO3 [Example 13, 9-(1,3-Benzodioxole-5-yl)-6-methyl-naphto[1,2-d]-1,3-dioxole-7-carboxamide] |  |  |  |  |  | 
23 | 207 to 209 °C | NC(=O)c1cc(-c2ccc(C(F)(F)F)cc2)c2c3c(ccc2c1)OCO3 [Example 12, 9-(4-Trifluromethylphenyl)-naphto[1,2-d]-1,3-dixole-7-carboxamide] |  |  |  |  |  | 
